Assay results taken from patent US20230146233A1, “A CLASS OF POLYCYCLIC COMPOUNDS INHIBITING RNA HELICASE DHX33 AND THE APPLICATION THEREOF” (Shenzhen KeYe Life Technologies, Co., Ltd, priority 2020, published 2023).

Legend:
DHX33 protein = target: T1, DHX33 protein (Mus musculus, UniProt Q80VY9); experiment: Inhibition of the helicase activity of DHX33 protein in vitro; type: biochemical; settings: recombinant DHX33 protein, compound 1-1000 nM, 37° C., 60 minutes; read-out: IC50 (inhibitory effects of the compounds on the helicase activity of DHX33 protein)
T1 construct: purified full-length DHX33 protein; made in house; host or cells: E. coli BL-21pLysS (DE3)
T1 sequence (Q80VY9 1-698): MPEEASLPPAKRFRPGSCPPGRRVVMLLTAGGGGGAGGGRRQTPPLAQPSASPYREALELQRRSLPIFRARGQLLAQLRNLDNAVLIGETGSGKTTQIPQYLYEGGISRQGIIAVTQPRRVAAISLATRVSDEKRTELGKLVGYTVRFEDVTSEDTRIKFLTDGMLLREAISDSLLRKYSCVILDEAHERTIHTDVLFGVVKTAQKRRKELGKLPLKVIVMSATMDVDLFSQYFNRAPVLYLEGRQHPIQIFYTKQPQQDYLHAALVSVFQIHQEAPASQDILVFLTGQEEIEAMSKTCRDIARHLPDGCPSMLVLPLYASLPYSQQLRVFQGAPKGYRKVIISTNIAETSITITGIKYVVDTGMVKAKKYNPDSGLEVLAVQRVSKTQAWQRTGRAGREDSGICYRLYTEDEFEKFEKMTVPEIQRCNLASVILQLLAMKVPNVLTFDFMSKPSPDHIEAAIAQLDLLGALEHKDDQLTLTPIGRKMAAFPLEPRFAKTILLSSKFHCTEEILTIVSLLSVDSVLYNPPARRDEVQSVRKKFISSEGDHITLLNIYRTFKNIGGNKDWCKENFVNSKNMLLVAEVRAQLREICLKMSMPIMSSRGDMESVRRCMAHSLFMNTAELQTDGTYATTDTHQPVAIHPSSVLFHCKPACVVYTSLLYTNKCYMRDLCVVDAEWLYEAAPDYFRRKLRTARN
Method: Biochemistry. 2019:58 (4):250-8. RNA helicase gene (mouse DHX33 gene) was cloned into a pET32M-3C vector (between BamH I/Not I restriction sites). Afterward, the plasmid was transformed into BL-21pLysS (DE3) E. coli. 0.5 mM isopropyl 1-thio-βp-D-galactopyranoside (IPTG) was added, and the expression of the recombinant protein was induced at 16° C. for 16 hours. Cells were allowed to precipitate and were resuspended in a cell lysis buffer [50 mM Tris-HCl (pH7.2), 150 mM NaCl, 1% Triton X-100, and 50 mM imidazole supplemented with a protease inhibitor]. Thereafter, cells were subjected to ultrasonic treatment and centrifuged at a rotation speed of 13000 rpm for 25 minutes. The supernatant was incubated with the nickel-nitrilotriacetic acid beads equilibrated in Tris buffer, followed by sufficient washing. Thereafter, the purified protein was eluted with a solution of 300 mM imidazole in Tris buffer, and was then subjected to dialysis against an imidazole-free Tris buffer at 4° C. overnight.
The components involved in the reaction for testing the helicase activity were added to a 96-well opaque white plate. The method was outlined as follows. The 96-well plate was coated with neutravidin at a final concentration of 10 μg/mL (100 μl/well) overnight at 4° C. Afterwards, the neutravidin-coated plate was blocked with 100 μL of 0.1% (w/v) BSA (dissolved in normal PBS) at 22° C. for 2 hours. After washing, a DNA duplex (2.5 ng) that was resulted from the annealing of two single-stranded DNA oligonucleotides (the sequence of one single strand was biotin-labeled 5′-[…]-3′; and the sequence of the other single strand was DIG-labeled 5′-[…]-3′) [the annealing reaction was carried out in PBS (pH 7.0) containing 1M NaCl] was added, and the resulting mixture was incubated at 22° C. for 4 hours. After the addition of 90 μL of the reaction mixture, the helicase reaction was initiated [0.25 pig of purified full-length DHX33 protein, dissolved in 25 mM 4-MOPS (pH 7.0), 5 mM ATP 2 mM DTT, 3 mM MnCl2 and 100 μg/mL BSA]. The reaction was conducted at 37° C. for 60 minutes. After being washed, each well was incubated with a blocking solution [10% (w/v) BSA in 0.1 M maleic acid and 0.15 M NaCl (pH 7.5)] for 30 minutes, and was then incubated with 20 μL of antibody solution (anti-DIG-AP, Roche, in blocking buffer) for 30 minutes. After being washed with 100 μL of detection buffer [0.1 M Tris-HCl and 0.1 M NaCl (pH 9.5)], each well was added with 1 μL of chemiluminescent substrate (CSPD-0.25 mM), and the plate was incubated at 17° C. for 5 minutes. Afterwards, the plate was patted dry and incubated at 37° C. for 30 minutes. The remaining DIG-AP marker control in each well was counted for 10 minutes by a luminescence multi-well plate reader (Enspire, PerkinElmer). Higher reading indicated weaker helicase activity.
Positive control and negative controls were set for this acticity assay. Among them, one negative control group, which differed from the experimental group only in that the former was not added with ATP (other conditions were the same as the experimental group), was used for the comparison with the experimental group; another negative control group, which differed from the experimental group only in that the former was not added with DHX33 protein (other conditions were the same as the experimental group), was used for the comparison with the experimental group. The positive control group was set for the comparison with the wild-type DHX33 protein (standard substance).
Biochemistry. 2019:58 (4):250-8.
Compounds having a series of concentration (the concentrations were set at 1 nM, 5 nM, 10 nM, 20 nM, 50 nM, 100 nM, 250 nM, 500 nM, and 1000 nM) were used to conduct the helicase activity assay of […] protein in vitro. The half-maximal inhibitory concentrations of the compounds of the present disclosure on the helicase activity of […] protein were as shown in Table 1.

U251-MG cells = experiment: Half-maximal cell-inhibitory concentration on U251-MG cells (CCK-8); type: cell-based; settings: Homo sapiens, U-251, U251-MG cells (DHX33-overexpressing cancer cell strain), 48 hours, read-out: IC50 (half-maximal inhibitory concentrations of compounds on U251-MG cells)
Outline: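 […]-overexpressing glioma cells seeded at 1×10^4 cells/well, exposed to compound from 5 nM to 20 μM for 48 hours at 37° C, 5% CO2. Viability read by CCK-8 after 2 hours (OD 450 nm); IC50 from inhibition curves, three repeats.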

Row | IC50 (DHX33 protein) [µM] | IC50 (U251-MG cells) [µM] | Structure (SMILES)
1 | 0.02 to 0.1 | 0.1 to 1 | COc1ccc2nc(/C(C#N)=C/c3cc(C)n(-c4oc(C)c(C)c4C#N)c3C)[nH]c2c1 [AB24202, (E)-2-(3-(2-cyano-2-(6-methoxy-1H-benzo[d]imidazol-2-yl)vinyl)-2,5-dimethyl-1H-pyrrol-1-yl)-4,5-dimethylfuran-3-carbonitrile]
2 | 0.1 to 0.4 | 1 to 5 | Cc1oc(-n2c(C)cc(/C=C(\C#N)c3nc4ccc(F)cc4[nH]3)c2C)c(C#N)c1C [AB24205]
3 | 0.1 to 0.4 | 1 to 5 | Cc1oc(-n2c(C)cc(/C=C(\C#N)c3nc4ccc(C(F)(F)F)cc4[nH]3)c2C)c(C#N)c1C [AB24243, (E)-2-(3-(2-cyano-2-(6-(trifluoromethyl)-1H-benzo[d]imidazol-2-yl)vinyl)-2,5-dimethyl-1H-pyrrol-1-yl)-4,5-dimethylfuran-3-carbonitrile]
4 | 0.1 to 0.4 | 5 to 20 | Cc1oc(-n2c(C)cc(/C=C(\C#N)c3nc4ccncc4[nH]3)c2C)c(C#N)c1C [AB24249]
5 | < 0.02 | < 0.1 | COc1cc2nc(/C(C#N)=C/c3cc(C)n(-c4oc(C)c(C)c4C#N)c3C)[nH]c2cn1 [AB24254, (E)-2-(3-(2-cyano-2-(6-methoxy-3H-imidazo[4,5-c]pyridin-2-yl)vinyl)-2,5-dimethyl-1H-pyrrol-1-yl)-4,5-dimethylfuran-3-carbonitrile]
6 | 0.1 to 0.4 | 1 to 5 | Cc1cc(/C=C(\C#N)c2nc3ccccc3[nH]2)c(C)n1-c1ccncc1 [AB24259]
7 | 0.1 to 0.4 | 1 to 5 | Cc1sc(-n2c(C)cc(/C=C(\C#N)c3nc4ccccc4[nH]3)c2C)c(C#N)c1C [AB24264, (E)-2-(3-(2-(1-(1-H-benzo[d]imidazol-2-yl]-2-cyanovinyl])-2,5-dimethyl-1H-pyrrol-1-yl)-4,5-dimethylthiophene-3-carbonitrile]
8 | 0.02 to 0.1 | 0.1 to 1 | Cc1cc(C#N)c(-n2c(C)cc(/C=C(\C#N)c3nc4ccccc4[nH]3)c2C)s1 [AB24270, (E)-2-(3-(2-(1H-benzo[d]imidazol-2-yl)-2-cyanovinyl)-2,5-dimethyl-1H-pyrrol-1-yl)-5-methylthiophene-3-carbonitrile]
9 | 0.1 to 0.4 | 1 to 5 | Cc1cc(/C=C(\C#N)c2nc3ccccc3[nH]2)c(C)n1-c1oc(-c2ccccc2)cc1C#N [AB24283, (E)-2-(3-(2-(1H-benzo[d]imidazol-2-yl)-2-cyanovinyl)-2,5-dimethyl-1H-pyrrol-1-yl)-5-phenylfuran-3-carbonitrile]
10 | < 0.02 | < 0.1 | COc1cc2nc(/C(C#N)=C/c3cc(C)n(-c4sc(C)cc4C#N)c3C)[nH]c2cn1 [AB24288, (E)-2-(3-(2-cyano-2-(6-methoxy-3H-imidazo[4,5-c]pyridin-2-yl)vinyl)-2,5-dimethyl-1H-pyrrol-1-yl)-5-methylthiophene-3-carbonitrile]
11 | 0.02 to 0.1 | 0.1 to 1 | CCOC(=O)c1nc(C)sc1-n1c(C)cc(/C=C(\C#N)c2nc3cc(OC)ncc3[nH]2)c1C [AB24314, ethyl (E)-5-(3-(2-cyano-2-(6-methoxy-3H-imidazo[4,5-c]pyridin-2-yl)vinyl)-2,5-dimethyl-1H-pyrrol-1-yl)-2-methylthiazole-4-carboxylate]
12 | < 0.02 | 0.1 to 1 | COc1ccc2nc(/C(C#N)=C/c3cc(C)n(-c4sc(C)cc4C#N)c3C)[nH]c2c1 [AB24321]
13 | 0.1 to 0.4 | 1 to 5 | COC(=O)c1c(-n2c(C)cc(/C=C(\C#N)c3nc4ccc(OC)cc4[nH]3)c2C)sc(C)c1C [AB24322, methyl (E)-2-(3-(2-cyano-2-(6-methoxy-1H-benzo[d]imidazol-2-yl)vinyl)-2,5-dimethyl-1H-pyrrol-1-yl)-4,5-dimethylthiophene-3-carboxylate]
14 | 0.02 to 0.1 | 1 to 5 | COC(=O)c1cc(C)c(-n2c(C)cc(/C=C(\C#N)c3nc4cc(OC)ncc4[nH]3)c2C)s1 [AB24335]
15 | 0.1 to 0.4 | 1 to 5 | COc1cc2nc(/C(C#N)=C/c3cc(C)n(-c4sc(-c5ccccn5)cc4C#N)c3C)[nH]c2cn1 [AB24336, (E)-2-(3-(2-cyano-2-(6-methoxy-3H-imidazo[4,5-c]pyridin-2-yl)vinyl)-2,5-dimethyl-1H-pyrrol-1-yl)-5-(pyridin-2-yl)thiophene-3-carbonitrile]
16 | 0.1 to 0.4 |  | COc1ccc2c(c1)[nH]c1cc(-c3cc(C)n(-c4sc(C)cc4C#N)c3C)ccc12 [AB24350, 2-(3-(7-methoxy-9H-carbazol-2-yl)-2,5-dimethyl-1H-pyrrol-1-yl)-5-methylthiophene-3-carbonitrile]
17 | 0.02 to 0.1 | 0.1 to 1 | COc1cc2nc(/C(C#N)=C/c3cc(C)n(-c4sc(C)nc4C(N)=O)c3C)[nH]c2cn1 [AB24351, (E)-5-(3-(2-cyano-2-(6-methoxy-3H-imidazo[4,5-c]pyridin-2-yl)vinyl)-2,5-dimethyl-1H-pyrrol-1-yl)-2-methylthiazole-4-carboxamide]
18 | 0.02 to 0.1 | 1 to 5 | COc1ccn2c(c1)nc1cc(-c3cc(C)n(-c4sc(C)cc4C#N)c3C)ccc12 [AB24379, 2-(3-(3-methoxybenzo[4,5]imidazo[1,2-a]pyridin-7-yl)-2,5-dimethyl-1H-pyrrol-1-yl)-5-methylthiophene-3-carbonitrile]
19 | < 0.02 | < 0.1 | COc1ccc2nc(NC(=O)c3cc(C)n(-c4sc(C)cc4C#N)c3C)[nH]c2c1 [AB24386, 1-(3-cyano-5-methylthiophen-2-yl)-N-(6-methoxy-1H-benzo[d]imidazol-2-yl)-2,5-dimethyl-1H-pyrrole-3-carboxamide]
20 | 0.02 to 0.1 | 0.1 to 1 | COc1ccc2nc(NC(=O)c3cc(C)n(-c4sc(C)cc4C(N)=O)c3C)[nH]c2c1 [AB24387, 1-(3-carbamoyl-5-methylthiophen-2-yl)-N-(6-methoxy-1H-benzo[d]imidazol-2-yl)-2,5-dimethyl-1H-pyrrole-3-carboxamide]
